Source: patent publication US9611267B2, “Substituted tricyclic compounds as FGFR inhibitors” (Incyte Corporation, priority 2012, dated 2017)

Legend:
Type in all cases: biochemical
FGFR1 = FGFR1 (Homo sapiens (Human), UniProt P11362); assay: FGFR enzymatic assay (FRET peptide phosphorylation), FGFR1; conditions: FGFR1 enzyme 0.02 nM, ATP 210 μM
Summary of the method: (§1)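 Recombinant kinase was pre-incubated 5–10 min with serially diluted inhibitor in HEPES buffer (10 mM MgCl2, 5 mM DTT, pH 7.5; buffer described for FGFR3). Peptide phosphorylation ran 1 h at 25 °C and was detected by FRET after ~1 h equilibration. IC50 values come from variable-slope sigmoidal fits.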

FGFR2 = FGFR2 (Homo sapiens (Human), UniProt P21802); assay: FGFR enzymatic assay (FRET peptide phosphorylation), FGFR2; conditions: FGFR2 enzyme 0.01 nM, ATP 100 μM
Summary of the method: as §1

FGFR3 = FGFR3 (Homo sapiens (Human), UniProt P22607); assay: FGFR enzymatic assay (FRET peptide phosphorylation), FGFR3; conditions: FGFR3 enzyme (Millipore), ATP 140 μM
Summary of the method: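 FRET assay of peptide phosphorylation by FGFR3 in HEPES pH 7.5 buffer with MgCl2, EGTA, Tween-20 and DTT. Enzyme was pre-incubated 5-10 min with compound, and the reaction ran 1 hr at 25° C. IC50 came from a variable-slope sigmoidal fit.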

Chain of FGFR1 (P11362 22-822): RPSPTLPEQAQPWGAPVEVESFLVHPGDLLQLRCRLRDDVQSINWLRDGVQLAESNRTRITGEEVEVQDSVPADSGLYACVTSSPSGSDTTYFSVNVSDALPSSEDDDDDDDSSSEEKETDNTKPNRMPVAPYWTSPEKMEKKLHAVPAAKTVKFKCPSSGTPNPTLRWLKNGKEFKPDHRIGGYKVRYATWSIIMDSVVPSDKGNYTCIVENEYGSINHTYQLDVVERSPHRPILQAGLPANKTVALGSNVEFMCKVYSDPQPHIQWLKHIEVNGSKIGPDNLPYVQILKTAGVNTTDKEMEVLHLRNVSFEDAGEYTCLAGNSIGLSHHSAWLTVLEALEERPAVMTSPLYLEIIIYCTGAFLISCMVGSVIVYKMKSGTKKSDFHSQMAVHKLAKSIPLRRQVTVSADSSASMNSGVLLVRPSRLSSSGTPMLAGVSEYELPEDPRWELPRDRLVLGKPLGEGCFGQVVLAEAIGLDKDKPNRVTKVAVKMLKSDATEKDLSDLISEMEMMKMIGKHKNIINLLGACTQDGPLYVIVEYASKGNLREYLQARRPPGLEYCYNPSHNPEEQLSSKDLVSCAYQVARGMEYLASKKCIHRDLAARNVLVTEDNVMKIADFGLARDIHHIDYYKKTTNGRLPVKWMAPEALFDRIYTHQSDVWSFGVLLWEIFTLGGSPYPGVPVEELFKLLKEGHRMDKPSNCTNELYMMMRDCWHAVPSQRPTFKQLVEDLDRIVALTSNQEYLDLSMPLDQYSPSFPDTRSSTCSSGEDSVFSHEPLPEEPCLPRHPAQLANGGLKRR
Chain of FGFR2 (P21802 22-821): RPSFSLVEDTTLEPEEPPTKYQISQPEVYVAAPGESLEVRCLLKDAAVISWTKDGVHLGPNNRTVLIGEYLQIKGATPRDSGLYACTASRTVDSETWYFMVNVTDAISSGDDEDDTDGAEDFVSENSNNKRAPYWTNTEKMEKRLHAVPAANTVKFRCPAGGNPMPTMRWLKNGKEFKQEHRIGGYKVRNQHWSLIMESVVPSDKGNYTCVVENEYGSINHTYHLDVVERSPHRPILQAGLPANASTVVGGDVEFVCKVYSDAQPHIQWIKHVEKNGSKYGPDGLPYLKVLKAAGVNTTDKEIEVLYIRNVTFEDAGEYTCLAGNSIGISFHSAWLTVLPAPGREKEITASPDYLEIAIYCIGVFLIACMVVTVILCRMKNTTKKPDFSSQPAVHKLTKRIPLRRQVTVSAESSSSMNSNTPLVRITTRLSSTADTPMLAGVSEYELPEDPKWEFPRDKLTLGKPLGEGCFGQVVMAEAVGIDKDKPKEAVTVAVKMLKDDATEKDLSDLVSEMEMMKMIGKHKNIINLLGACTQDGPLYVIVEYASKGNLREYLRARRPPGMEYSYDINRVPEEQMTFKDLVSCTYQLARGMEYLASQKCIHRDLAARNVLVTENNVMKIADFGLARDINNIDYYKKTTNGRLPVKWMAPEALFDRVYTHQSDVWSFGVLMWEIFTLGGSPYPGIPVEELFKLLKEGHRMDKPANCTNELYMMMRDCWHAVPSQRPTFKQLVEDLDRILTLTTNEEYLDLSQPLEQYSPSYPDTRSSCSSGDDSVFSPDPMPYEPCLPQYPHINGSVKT
Chain of FGFR3 (P22607 23-806): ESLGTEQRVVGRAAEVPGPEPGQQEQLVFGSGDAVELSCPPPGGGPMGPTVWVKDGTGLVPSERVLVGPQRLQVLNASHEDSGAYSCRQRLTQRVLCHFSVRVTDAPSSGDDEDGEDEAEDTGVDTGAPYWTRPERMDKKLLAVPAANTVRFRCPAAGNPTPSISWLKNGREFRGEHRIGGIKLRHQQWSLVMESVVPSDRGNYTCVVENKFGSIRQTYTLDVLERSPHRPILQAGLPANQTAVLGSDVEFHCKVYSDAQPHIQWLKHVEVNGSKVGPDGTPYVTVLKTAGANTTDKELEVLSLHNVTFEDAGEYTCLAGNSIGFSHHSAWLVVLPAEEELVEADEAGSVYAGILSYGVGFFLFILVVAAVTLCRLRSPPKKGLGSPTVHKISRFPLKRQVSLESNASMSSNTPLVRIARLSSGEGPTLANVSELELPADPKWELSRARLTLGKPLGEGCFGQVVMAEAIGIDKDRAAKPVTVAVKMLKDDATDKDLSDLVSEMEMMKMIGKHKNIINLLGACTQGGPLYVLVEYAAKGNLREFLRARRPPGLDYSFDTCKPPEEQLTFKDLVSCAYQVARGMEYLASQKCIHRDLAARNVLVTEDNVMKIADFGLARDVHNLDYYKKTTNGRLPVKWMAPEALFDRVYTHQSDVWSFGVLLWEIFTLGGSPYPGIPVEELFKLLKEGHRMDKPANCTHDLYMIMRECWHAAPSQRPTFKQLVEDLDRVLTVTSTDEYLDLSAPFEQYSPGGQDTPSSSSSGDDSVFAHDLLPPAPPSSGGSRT

| IC50 (FGFR1) [nM] | IC50 (FGFR2) [nM] | IC50 (FGFR3) [nM] | SMILES |
| --- | --- | --- | --- |
| < 100 | < 100 | < 100 | COc1cc(OC)c(F)c(N2Cc3cnc4[nH]c(CCN5CCOCC5)cc4c3N(c3cccc(F)c3F)C2=O)c1F [Example 222, 3-(2,6-difluoro-3,5-dimethoxyphenyl)-1-(2,3-difluorophenyl)-8-(2-morpholin-4-ylethyl)-1,3,4,7-tetrahydro-2H-pyrrolo[3′,2′:5,6]pyrido[4,3-d]pyrimidin-2-one] |
| < 100 | < 100 | < 100 | CCN1CCN(Cc2cc3c4c(cnc3[nH]2)CN(c2c(F)c(OC)cc(OC)c2F)C(=O)N4C2CC2)CC1 [Example 188, 1-cyclopropyl-3-(2,6-difluoro-3,5-dimethoxyphenyl)-8-[(4-ethylpiperazin-1-yl)methyl]-1,3,4,7-tetrahydro-2H-pyrrolo[3′,2′:5,6]pyrido[4,3-d]pyrimidin-2-one] |
| < 100 | < 100 | < 100 | COc1cc(OC)c(F)c(N2Cc3cnc4[nH]c(C(=O)N5CCOCC5)cc4c3N(C)C2=O)c1F [Example 41, 3-(2,6-Difluoro-3,5-dimethoxyphenyl)-1-methyl-8-(morpholin-4-ylcarbonyl)-1,3,4,7-tetrahydro-2H-pyrrolo[3′,2′:5,6]pyrido[4,3-d]pyrimidin-2-one] |
| < 100 | < 100 | < 100 | COc1cc(OC)c(F)c(N2Cc3cnc4[nH]ncc4c3N(C3CC3)C2=O)c1F [Example 87, 1-cyclopropyl-3-(2,6-difluoro-3,5-dimethoxyphenyl)-1,3,4,7-tetrahydro-2H-pyrazolo[4′,3′:5,6]pyrido[4,3-d]pyrimidin-2-one] |
| < 100 | < 100 | < 100 | COc1cc(OC)c(F)c(N2Cc3cnc4[nH]c(CN5CCN(C)CC5)cc4c3N(c3cccc(F)c3)C2=O)c1F [Example 213, 3-(2,6-difluoro-3,5-dimethoxyphenyl)-1-(3-fluorophenyl)-8-[(4-methylpiperazin-1-yl)methyl]-1,3,4,7-tetrahydro-2H-pyrrolo[3′,2′:5,6]pyrido[4,3-d]pyrimidin-2-one] |
| < 100 | < 100 | < 100 | COc1cc(OC)c(F)c(N2Cc3cnc4[nH]ccc4c3N(c3ccccc3)C2=O)c1F [Example 47, 3-(2,6-difluoro-3,5-dimethoxyphenyl)-1-phenyl-1,3,4,7-tetrahydro-2H-pyrrolo[3′,2′:5,6]pyrido[4,3-d]pyrimidin-2-one] |
| < 100 | < 100 | < 100 | COc1cc(OC)c(F)c(N2Cc3cnc4[nH]c(C(=O)N5CCCC(O)C5)cc4c3N(C)C2=O)c1 (stereo not drawn) [Example 31, 3-(2-Fluoro-3,5-dimethoxyphenyl)-8-[(3-hydroxypiperidin-1-yl)carbonyl]-1-methyl-1,3,4,7-tetrahydro-2H-pyrrolo[3′,2′:5,6]pyrido[4,3-d]pyrimidin-2-one] |
| < 100 | < 100 | < 100 | COc1cc(OC)c(F)c(N2Cc3cnc4c(c3N(Cc3ccccn3)C2=O)CC(=O)N4)c1F [Example 79, 3-(2,6-difluoro-3,5-dimethoxyphenyl)-1-(pyridin-2-ylmethyl)-3,4,7,9-tetrahydro-1H-pyrrolo[3′,2′:5,6]pyrido[4,3-d]pyrimidine-2,8-dione] |
| < 100 | < 100 | < 100 | COc1cc(OC)c(F)c(N2Cc3cnc4[nH]c(CN5CCN(CCC#N)CC5)cc4c3N(C)C2=O)c1F [Example 131, 3-(4-{[3-(2,6-difluoro-3,5-dimethoxyphenyl)-1-methyl-2-oxo-2,3,4,7-tetrahydro-1H-pyrrolo[3′,2′:5,6]pyrido[4,3-d]pyrimidin-8-yl]methyl}piperazin-1-yl)propanenitrile] |
| < 100 | < 100 | < 100 | CCN1CCN(Cc2cc3c4c(cnc3[nH]2)CN(c2c(F)c(OC)cc(OC)c2F)C(=O)N4C)CC1 [Example 70, 3-(2,6-difluoro-3,5-dimethoxyphenyl)-8-[(4-ethylpiperazin-1-yl)methyl]-1-methyl-1,3,4,7-tetrahydro-2H-pyrrolo[3′,2′:5,6]pyrido[4,3-d]pyrimidin-2-one] |
| < 100 | < 100 | < 100 | COc1cc(OC)c(F)c(N2Cc3cnc4[nH]c(CN5CC[C@@H](C#N)C5)cc4c3N(C)C2=O)c1F [Example 209, (3R)-1-{[3-(2,6-difluoro-3,5-dimethoxyphenyl)-1-methyl-2-oxo-2,3,4,7-tetrahydro-1H-pyrrolo[3′,2′:5,6]pyrido[4,3-d]pyrimidin-8-yl]methyl}pyrrolidine-3-carbonitrile] |
| < 100 | < 100 | < 100 | COc1cc(OC)cc(N2Cc3cnc4[nH]ccc4c3N(C)C2=O)c1 [Example 1, 3-(3,5-Dimethoxyphenyl)-1-methyl-1,3,4,7-tetrahydro-2H-pyrrolo[3′,2′:5,6]pyrido[4,3-d]pyrimidin-2-one] |
| < 100 | < 100 | < 100 | COc1cc(OC)c(F)c(N2Cc3cnc4[nH]c(CCc5ccccn5)cc4c3N(C)C2=O)c1F [Example 140, 3-(2,6-difluoro-3,5-dimethoxyphenyl)-1-methyl-8-(2-pyridin-2-ylethyl)-1,3,4,7-tetrahydro-2H-pyrrolo[3′,2′:5,6]pyrido[4,3-d]pyrimidin-2-one] |
| < 100 | < 100 | < 100 | CCN1CCN(CCc2cc3c4c(cnc3[nH]2)CN(c2c(F)c(OC)cc(OC)c2F)C(=O)N4c2cccc(F)c2)CC1 [Example 229, 3-(2,6-difluoro-3,5-dimethoxyphenyl)-1-(3-fluorophenyl)-8-[2-(4-ethylpiperazin-1-yl)ethyl]-1,3,4,7-tetrahydro-2H-pyrrolo[3′,2′:5,6]pyrido[4,3-d]pyrimidin-2-one] |
| < 100 | < 100 | < 100 | COc1cc(OC)c(F)c(N2Cc3cnc4[nH]ncc4c3N(c3cnn(CC(C)(C)O)c3)C2=O)c1F [Example 173, 3-(2,6-difluoro-3,5-dimethoxyphenyl)-1-[1-(2-hydroxy-2-methylpropyl)-1H-pyrazol-4-yl]-1,3,4,7-tetrahydro-2H-pyrazolo[4′,3′:5,6]pyrido[4,3-d]pyrimidin-2-one] |
| < 100 | < 100 | < 100 | COc1cc(OC)cc(N2Cc3cnc4[nH]c(C5CCN(C)CC5)cc4c3N(C)C2=O)c1 [Example 18, 3-(3,5-Dimethoxyphenyl)-1-methyl-8-(1-methylpiperidin-4-yl)-1,3,4,7-tetrahydro-2H-pyrrolo[3′,2′:5,6]pyrido[4,3-d]pyrimidin-2-one] |
| < 100 | < 100 | < 100 | COc1cc(OC)c(F)c(N2Cc3cnc4[nH]c(CN5CCC(C#N)CC5)cc4c3N(C)C2=O)c1F [Example 132, 1-{[3-(2,6-difluoro-3,5-dimethoxyphenyl)-1-methyl-2-oxo-2,3,4,7-tetrahydro-1H-pyrrolo[3′,2′:5,6]pyrido[4,3-d]pyrimidin-8-yl]methyl}piperidine-4-carbonitrile] |
| < 100 | < 100 | < 100 | CCN1CCN(CCc2cc3c4c(cnc3[nH]2)CN(c2c(F)c(OC)cc(OC)c2F)C(=O)C4(C)C)CC1 [Example 159, 7-(2,6-difluoro-3,5-dimethoxyphenyl)-2-[2-(4-ethylpiperazin-1-yl)ethyl]-9,9-dimethyl-3,6,7,9-tetrahydro-8H-pyrrolo[2,3-c]-2,7-naphthyridin-8-one] |
